Laboratory results as given in patent US7034159B2, “Pharmaceutical compositions comprising 1-isopropyl-3-[(4-m-toluidino-3-pyridyl)sulphonyl]-urea as active ingredient” (Cosma S.p.A., priority 2002, dated 2006).
Like-named read-outs stand apart in the source and are kept apart here.

How the values were obtained:
[1] = Kondo et al. 1994, susceptibility to humidity/water, cited from earlier work
[2] = Transformation of form II suspended in water (strong heating or prolonged treatment); format: physicochemical; conditions: suspended in water and strongly heated, or suspended in water and subjected to prolonged treatment
From the text: 27, 1997 and 2nd edition Nov. 8, 2000) and recognised on the world scale for the evaluation of the stability of pharmaceutical substances.
Form I of torsemide is obtainable from form II of torsemide as above according to the instructions of Kondo, namely by suspension of an aliquot of form II in water (approx. 23 parts by weight) and subsequent stirring for 20 days at room temperature. The melting point of form I of torsemide, used by the inventors of the present patent application, measured with a Büchi B-540 according to USP class 1a (temperature increments of 1° C.±0.5° C./min starting from 10° C. from the expected melting point, inserting the sample at 5° C. from the melting point, then 1° C.±0.5° C./min until reaching the melting point), is 160.1°–160.5° C.

[3] = Drastic test with pure solid form II at 80° C. for two days in the absence of light; format: physicochemical
Description: Drastic Test with Pure Solid Form II at 80° C. for Two Days (Carried Out in the Absence of Light).

[4] = Accelerated ICH stability test with pure solid form II, polymorphic transformation followed by FT-IR in KBr; format: physicochemical; conditions: 40°±2C and 75±5% relative humidity, over 6 months
From the text: For detectable polymorphic transformations is intended transformations visible from changes of the FT-IR spectrum of form II of torsemide registered in KBr. Specifically, the formation of a contamination of 1% or greater (by weight) of form I of torsemide in a sample of pure form II of torsemide would be a detectable polymorphic transformation by means of the relative change of the FT-IR spectrum registered in KBr which would imply the appearance of a peak in the position at 1697 cm^−1. Accelerated Test with Pure Solid Form II at 40°±2C and 75±5% of Relative Humidity. This type of test which is prescribed according to ICH (Q1A, “Stability testing of new Drug Substances and new Drug Products”, 1st edition Oct. 27, 1997 and 2nd edition Nov. 8, 2000) allows, according to internationally recognised procedures, to extrapolate the results obtained with this accelerated test to a mock storage period at room temperature for over 2 years. The inventors of the present patent application have subjected a series of pure samples of form II of torsemide to this test, and have assayed with the frequency and to the prescribed terms, the possible polymorphic transformations of the samples through registration of the FT-IR spectra in KBr on a Jasco apparatus.

[5] = Prolonged ICH stability test with pure solid form II, polymorphic transformation followed by FT-IR in KBr; format: physicochemical; conditions: 25°±2C and 60±5% relative humidity, after 13 months
Description: Prolonged Test with Pure Solid Form II at 25°±2C and 60±5% of Relative Humidity. This type of test which is prescribed according to ICH (Q1A, “Stability testing of new Drug Substances and new Drug Products”, 1st edition Oct. 27, 1997 and 2nd edition Nov. 8, 2000) follows possible degradation of the samples under more mild conditions, but over prolonged periods. The inventors of the present patent application have subjected a series of pure samples of form II of torsemide to this test, and have assayed with the frequency and to the prescribed terms, the possible polymorphic transformations of the samples through the registration of the FT-IR spectra in KBr on the Jasco apparatus.

Row | polymorphic transformation in aqueous suspension [2] | polymorphic transformation (FT-IR in KBr, Jasco) [4] | SMILES | relative stability of the polymorphic form [1] | relative stability of the polymorphic form ([1]; listed as form II) | polymorphic transformation [3] | polymorphic transformation (FT-IR in KBr, Jasco) [5]
1 | – | – | Cc1cccc(Nc2ccncc2S(=O)(=O)NC(=O)NC(C)C)c1 [form I, 1-isopropyl-3-[(4-m-toluidino-3-pyridyl)sulphonyl]-urea] | sufficiently stable | – | – | –
2 | transforms into form I | no detectable polymorphic transformation | Cc1cccc(Nc2ccncc2S(=O)(=O)NC(=O)NC(C)C)c1 [form II of torsemide, 1-isopropyl-3-[(4-m-toluidino-3-pyridyl)sulphonyl]-urea] | – | poorly stable | does not show a detectable polymorphic transformation | could not see any detectable polymorphic transformation
